Common to all, as to assay type: cell-based, human
One test has as its system MKL-1. The experiment in a line: Cell Titer Glo dose-response study. From the text:
(§1) Seven Merkel cell carcinoma cell lines: MKL-1, MKL-2, MS-1, UISO, MCC13, MCC26 and WaGa (kind gift of Jurgen Becker (Houben et al., Merkel cell polyomavirus-infected Merkel cell carcinoma cells require expression of viral T antigens. J Virol 84, 7064 (July, 2010); Ronan et al., Merkel cell carcinoma: in vitro and in vivo characteristics of a new cell line. J Am Acad Dermatol 29, 715 (November, 1993); Rosen et al., Establishment and characterization of a neuroendocrine skin carcinoma cell line. Lab Invest 56, 302 (March, 1987)); NCI-H69 small cell lung cancer cell line (ATCC); 293 human embryonic kidney cells (ATCC); U2OS osteosarcoma cell line (kind gift of Ole Gjoerup); BJhTERT immortalized foreskin fibroblast cell line (kind gift of Ole Gjoerup); and BJ primary foreskin fibroblasts (ATCC) were used to screen and evaluate the small molecules examined in this study (Houben et al., J Virol 84, 7064 (July, 2010); Ronan et al., J Am Acad Dermatol 29, 715 (November, 1993); Rosen et al., Lab Invest 56, 302 (March, 1987)). The Merkel cell lines and NCI-H69 were grown in RPMI 1640 supplemented with 10% fetal calf serum, penicillin and streptomycin at 37° C. in humidified air containing 5% CO2. The remaining cell lines were grown in DMEM supplemented with 10% fetal calf serum.
(§2) For EC50 measurements, dose-response curves were established for 17 drugs obtained individually in bulk stocks. Iodoacetamide (I1149), sanguarine chloride (S5890), NSC95397 (N1786), chelerythrine chloride (C2932), calmidazolium chloride (C3930), tetraethylthiuram disulfide (T1132), bay 11-7085 (B5681), quinacrine dihydro chloride (Q3251), ellipticine (E3380), amsacrine hydrochloride (A9809) and nutlin-3 (N6287) were purchased from Sigma Aldrich, USA.
(§3) Compounds that met the selection criteria <10% cell survival were purchased or obtained in bulk from NCI/NIH Developmental Therapeutics Program. Serial drug dilutions from 10^−4 M to 10^−9 M were used on MCC and non-MCC cell lines. Cells were seeded into 384-well plates at 6000 cells in 50 μl of medium per well. After 24 hours, 25 μl of 3× drugs were added at increasing concentration to each well. Cell viability was then measured using Cell Titer Glo (Promega) kit following manufacturer's instructions as described previously. Each drug concentration was tested in triplicate for each cell line and experiments were repeated twice. EC50 doses for the drugs were calculated using a four parameter logistic equation (GraphPad Prism).

A further test concerns MS-1. Nature of the test: Cell Titer Glo dose-response study.
Source text: as §1, §2, §3

Another test relates to UISO. Nature of the test: Cell Titer Glo dose-response study. To be noted: read-out: EC50 concentrations for MCC cell lines, UISO.
Source text: as §1, §2, §3
A general note: In ATP-based viability assays light output follows the ATP content of the culture.

In the next test the test system is WaGa. Nature of the test: Cell Titer Glo dose-response study. To be noted: read-out: EC50 concentrations for MCC cell lines, WaGa.
Source text: as §1, §2, §3

The subject of a further test is MKL-2. The experiment in a line: Cell Titer Glo dose-response study. To be noted: read-out: EC50 concentrations for MCC cell lines, MKL-2.
Source text: as §1, §2, §3

The next test deals with MKL-1 cells. Nature of the test: MKL-1 cytotoxicity screen (Cell Titer Glo). To be noted: screened at 10^-5 M; 48 hours; cut-off <10% cell survival.
Where [1] appears, read: Homo sapiens, MKL-1, read-out: EC50 concentrations for MCC cell lines, MKL-1.
Where [2] appears, read: Homo sapiens, MS-1, read-out: EC50 concentrations for MCC cell lines, MS-1.
Setting [3] is: Homo sapiens, MKL-1 (MCV-positive), Cell Titer Glo, read-out: EC50 concentrations for MCC cell lines, MKL-1.
Setting [4] is: Homo sapiens, MS-1 (MCV-positive), Cell Titer Glo, read-out: EC50 concentrations for MCC cell lines, MS-1.
[5] abbreviates: Homo sapiens, UISO (MCV-negative), Cell Titer Glo.
The mark [6] stands for this setting: Homo sapiens, WaGa (MCV-positive), Cell Titer Glo.
[7] abbreviates: Homo sapiens, MKL-2 (MCV-positive), Cell Titer Glo.
Setting [8] is: MKL-1 (MCV-positive), Cell Titer Glo, read-out: EC50 concentrations for MCC cell lines, MKL-1.
The mark [9] stands for this setting: MS-1 (MCV-positive), Cell Titer Glo, read-out: EC50 concentrations for MCC cell lines, MS-1.
The mark [10] stands for this setting: UISO (MCV-negative), Cell Titer Glo.
Setting [11] is: WaGa (MCV-positive), Cell Titer Glo.
The mark [12] stands for this setting: MKL-2 (MCV-positive), Cell Titer Glo.

Counter-ions that a name gives are not always drawn. Like-named read-outs stand apart in the source and are kept apart here.

Source text for MKL-1 cells: A total of 1,360 compounds were used in the initial screening survey: 1,280 compounds from LOPAC1280 library (Sigma Aldrich, accessed through University of Pittsburgh Drug Discovery Institute), 89 compounds from NCI's Approved Oncology Drug Set II (from The NCI/DTP Open Chemical Repository, http://dtp.cancer.gov), 6 LT ATPase inhibitors (MAL2-11B, MAL3-101, MAL2-51, DMT3084, bithionol and hexachlorophene (Wright et al., Inhibition of Simian Virus 40 replication by targeting the molecular chaperone function and ATPase activity of T antigen. Virus Res 141, 71 (April, 2009); Seguin et al., High-Throughput Screening Identifies a Bisphenol Inhibitor of SV40 Large T Antigen ATPase Activity. […] NCI Approved Oncology Drug Set II, SV40 LT ATPase inhibitors and MDM2 inhibitors were reconstituted as recommended by supplier. […] Reconstituted compounds were diluted in cell culture media to obtain a 100× stock concentration prior to addition to cells. Doxorubicin (positive control) was obtained from Sigma-Aldrich and DMSO (negative control) was obtained from Fisher Bioreagents.
MKL-1 cells were seeded at a density of 6000 cells in 50 μl of medium per well (120 cells/μl) in opaque polypropylene 384-well microplates (#781080, Greiner Bio-One, Germany). Cells were incubated at 37° C. in humidified air containing 5% CO2 for 24 hours. Thereafter, 25 μl of medium containing 3× drug per well was added to the plates, which were incubated for an additional 48 hours. Cell viability was measured using Cell Titer Glo (Promega) following manufacturer's instructions.
The LOPAC1280 library was screened at a final concentration of 10 μM for each compound and the NCI library was screened at a final concentration of 1 μM for each compound.
Cell Titer Glo assays were performed in duplicate using 384 well plates, each containing 24 wells with 1% DMSO (negative control) and 32 wells with 200 μM doxorubicin (positive control). Screening results were evaluated on the basis of percentage cell survival normalized to the DMSO control (100%). Positive candidates were identified using a cut-off value of <10% cell survival.

For `COc1cccc2c1C(=O)c1c(O)c3c(c(O)c1C2=O)C[C@@](O)(C(C)=O)C[C@@H]3O[C@H]1C[C@H](N)[C@H](O)[C@H](C)O1` [Daunorubicin], the EC50 is 0.015 µM with MKL-1 (setting [1]); 0.15 µM with MS-1 (setting [2]); 1.4 µM in the test with UISO (Homo sapiens); 0.018 µM in the test on WaGa (Homo sapiens); 0.086 µM with MKL-2 (Homo sapiens).
As to `Clc1ccc(C(c2ccc(Cl)cc2)n2cc[n+](CC(OCc3ccc(Cl)cc3Cl)c3ccc(Cl)cc3Cl)c2)cc1` (centres unmarked) [Calmidazolium chloride], the EC50 in the test on MKL-1 (setting [3]) stood at 2.2 µM; in the test on MS-1 (setting [4]) it was 2.1 µM; in the test with UISO (setting [5]) it was 2 µM; in the test with WaGa (setting [6]), 2.1 µM; with MKL-2 (setting [7]), 1.7 µM.
Turning to `NC(=O)CI` [Iodoacetamide], the EC50 amounted to 0.29 µM in the test with MKL-1 (setting [1]); 0.64 µM with MS-1 (setting [2]); 2.5 µM in the test on UISO (Homo sapiens); 0.37 µM with WaGa (Homo sapiens); 0.3 µM in the test on MKL-2 (Homo sapiens).
As for `CCCCC(=O)OCC(=O)[C@]1(O)Cc2c(O)c3c(c(O)c2[C@@H](O[C@H]2C[C@H](NC(=O)C(F)(F)F)[C@H](O)[C@H](C)O2)C1)C(=O)c1c(OC)cccc1C3=O` [Valrubicin], the EC50 came out at 0.23 µM in the test with MKL-1 (setting [3]); 9.9 µM in the test with MS-1 (setting [4]); 4 µM with UISO (setting [5]); 0.32 µM in the test with WaGa (setting [6]); 2.8 µM in the test with MKL-2 (setting [7]).
In the case of `O=C1c2c(O)ccc(O)c2C(=O)c2c(NCCNCCO)ccc(NCCNCCO)c21` [Mitoxantrone], the EC50 worked out at 0.006 µM in the test on MKL-1 (setting [3]); 1.6 µM in the test on MS-1 (setting [4]); 0.97 µM in the test with UISO (setting [5]); 0.014 µM with WaGa (setting [6]); 1.3 µM with MKL-2 (setting [7]).
As for `NC(=O)c1ncn([C@@H]2O[C@H](CO)[C@@H](O)[C@H]2O)n1` [ribavirin], the “activity in screen (>90% inhibition of MKL-1 cell growth)” value in the test on MKL-1 cells was “not active”.
The same measure, in the same setting: the same measure for `CO[C@H]1C[C@@H]2CC[C@@H](C)[C@@](O)(O2)C(=O)C(=O)N2CCCC[C@H]2C(=O)O[C@H]([C@H](C)C[C@@H]2CC[C@@H](O)[C@H](OC)C2)CC(=O)[C@H](C)/C=C(\C)[C@@H](O)[C@@H](OC)C(=O)[C@H](C)C[C@H](C)/C=C/C=C/C=C/1C` [rapamycin]: “not active”.
Still for that read-out and setting: the same measure for `Nc1nc2c(ncn2COCCO)c(=O)[nH]1` [acyclovir]: “not active”.
On to `Cc1c2ccncc2c(C)c2c1[nH]c1ccccc12` [Ellipticine], for which the EC50 was 3.2 µM in the test with MKL-1 (setting [3]); 6.9 µM in the test with MS-1 (setting [4]); 1.1 µM in the test with UISO (setting [5]); 3 µM with WaGa (setting [6]); 6.5 µM with MKL-2 (setting [7]).
As to `CCC(=O)N1CCN(c2ccc(-n3c(=O)ccc4cnc5ccc(-c6cnc7ccccc7c6)cc5c43)cc2C(F)(F)F)CC1` [Torin1], the “activity in screen (>90% inhibition of MKL-1 cell growth)” value with MKL-1 cells is “not active”.
For the compound `COc1cc([C@@H]2c3cc4c(cc3[C@@H](O[C@@H]3O[C@@H]5CO[C@@H](c6cccs6)O[C@H]5[C@H](O)[C@H]3O)[C@H]3COC(=O)[C@H]23)OCO4)cc(OC)c1O` [Teniposide], the EC50 was found to be 0.01 µM in the test on MKL-1 (setting [3]); 3 µM in the test with MS-1 (setting [4]); 7.3 µM in the test on UISO (setting [5]); 0.026 µM in the test on WaGa (setting [6]); 2.8 µM in the test on MKL-2 (setting [7]).
In the case of `CC(C)(C)c1ccc(S(=O)(=O)/C=C/C#N)cc1` [Bay 11-7085], the EC50 is 1.4 µM in the test on MKL-1 (setting [8]); 2.7 µM with MS-1 (setting [9]); 4.5 µM with UISO (setting [10]); 1.2 µM in the test on WaGa (setting [11]); 1.7 µM with MKL-2 (setting [12]).
On to `CC[C@@]1(O)C(=O)OCc2c1cc1n(c2=O)Cc2cc3c(CN(C)C)c(O)ccc3nc2-1` [Topotecan], for which the EC50 is 0.028 µM in the test with MKL-1 (setting [3]); 0.62 µM in the test with MS-1 (setting [4]); 0.17 µM with UISO (setting [5]); 0.015 µM with WaGa (setting [6]); 0.43 µM in the test on MKL-2 (setting [7]).
With `CCN(CC)CCCC(C)Nc1c2ccc(Cl)cc2nc2ccc(OC)cc12` (centres unmarked) [Quinacrine dihydrochloride], the EC50 in the test on MKL-1 (setting [1]) worked out at 5.1 µM; with MS-1 (setting [2]) it was 4.9 µM; with UISO (Homo sapiens), 7.1 µM; in the test with WaGa (Homo sapiens) it was 5.2 µM; in the test on MKL-2 (Homo sapiens) it was 4.6 µM.
For `COc1ccc2c(c[n+](C)c3c4cc5c(cc4ccc23)OCO5)c1OC` [Chelerythrine chloride], the EC50 in the test on MKL-1 (setting [3]) was determined as 0.6 µM; in the test with MS-1 (setting [4]), 0.52 µM; with UISO (setting [5]), 3.7 µM; with WaGa (setting [6]), 0.7 µM; with MKL-2 (setting [7]) it was 0.65 µM.
For `COc1cccc2c1C(=O)c1c(O)c3c(c(O)c1C2=O)C[C@@](O)(C(=O)CO)C[C@@H]3O[C@H]1C[C@H](N)[C@H](O)[C@H](C)O1` [Doxorubicin] the same measures were 0.21 µM, 0.37 µM, 0.25 µM, 0.022 µM and 0.022 µM.
Turning to `C[n+]1cc2c3c(ccc2c2ccc4cc5c(cc4c21)OCO5)OCO3` [Sanguinarine chloride], the EC50 in the test with MKL-1 (setting [1]) was 5.3 µM; in the test with MS-1 (setting [2]), 4.9 µM; in the test on UISO (Homo sapiens), 6.5 µM; with WaGa (Homo sapiens) it was 2.5 µM; in the test on MKL-2 (Homo sapiens), 8.4 µM.
Turning to `O=C1C(SCCO)=C(SCCO)C(=O)c2ccccc21` [NSC 95397], the EC50 in the test with MKL-1 (setting [8]) amounted to 1.2 µM; in the test with MS-1 (setting [9]), 1.8 µM; with UISO (setting [10]) it was 2.8 µM; with WaGa (setting [11]), 0.73 µM; in the test on MKL-2 (setting [12]) it was 1.5 µM.
Regarding `CCN(CC)C(=S)SSC(=S)N(CC)CC` [Tetraethylthiuram disulfide], the EC50 with MKL-1 (setting [3]) is 0.49 µM; in the test with MS-1 (setting [4]), 6.3 µM; with UISO (setting [5]), 13 µM; with WaGa (setting [6]), 1.1 µM; in the test on MKL-2 (setting [7]) it was 0.19 µM.
Taken in the same sequence, the figures for `COc1cc(NS(C)(=O)=O)ccc1Nc1c2ccccc2nc2ccccc12` [Amsacrine hydrochloride] were 0.11 µM, 7.5 µM, 2.6 µM, 0.25 µM and 3 µM.
Turning to `COc1ccc(C2=N[C@@H](c3ccc(Cl)cc3)[C@@H](c3ccc(Cl)cc3)N2C(=O)N2CCNC(=O)C2)c(OC(C)C)c1` [nutlin-3], the “activity in screen (>90% inhibition of MKL-1 cell growth)” value with MKL-1 cells is given as “not active”.
As to `CO[C@H]1C[C@@H]2CC[C@@H](C)[C@@](O)(O2)C(=O)C(=O)N2CCCC[C@H]2C(=O)O[C@H]([C@H](C)C[C@@H]2CC[C@@H](OCCO)[C@H](OC)C2)CC(=O)[C@H](C)/C=C(\C)[C@@H](O)[C@@H](OC)C(=O)[C@H](C)C[C@H](C)/C=C/C=C/C=C/1C` [everolimus], in the test on MKL-1 cells, the “activity in screen (>90% inhibition of MKL-1 cell growth)” value is “not active”.

For the origin of these results see US9662329B2, “Use of survivin antagonists in polyomavirus-related disease” (University of Pittsburgh—Of the Commonwealth System of …, priority 2012, dated 2017).
